How the values were obtained:
[1] = test system: nasopharyngeal HONE1 cancer cells; experiment: In vitro cytotoxicity MTS assay, nasopharyngeal HONE1; assay type: cell-based, human; settings: 72 hours
Method: (§1) A panel of human cancer cells, gastric NUGC3 and HR, nasopharyngeal HONE1, hepatocellular HEP G2 and HA-22T, colorectal DLD1, lung A549, prostate PC3, breast MCF7 and its adriamycin-resistant MCF7/ADR subline, uterus MES-SA and its adriamycin-resistant MES-SA/Dx5 subline, is purchased from Food Industry Research and Development Institute, Hsinchu, Taiwan R.O.C. or American Type Culture Collection, Manassas, Va. U.S.A., are used in in vitro cytotoxicity assays. The human cells are seeded at a cell density of 3000 or 4500 cells/100 μl/well in 96-well flat-bottom plates and incubated for 24 hours at 37° C. in a 5% CO2 incubator. The testing compounds are dissolved in dimethyl sulfoxide (DMSO) and further diluted into the culture medium for treatments of human cancer cells in vitro. The drug-containing media has a final DMSO concentration of ≦0.3%. The compounds of this invention are prepared in culture media for testing at a range of concentrations from 10, 1, 0.1, 0.01 to 0.001 μM. Each compound solution is (200 μl/well in duplicate) in the cell plates and is treated for 72 hours at 37° C., 5% CO2 in an incubator. Actinomycin D at 5 μM and 0.3% DMSO are used as the positive and vehicle controls, respectively. A colorimetric assay using 3-(4,5-dimethylthiazol-2-yl)-5-(3-carboxymethoxyphenyl)-2-(4-sulfophenyl)-2H-tetrazolium (MTS) and phenazine methosulfate (PMS) is used to determine the potency of the compounds. This assay measures cell viability based on the cellular activity in conversion of a tetrazolium salt into a colored soluble formazan product. The optical density (OD) values are measured at 490 nm with a 1420 multilabel counter VICTOR® from Wallac, Turku, Finland. All of the measured values are subtracted with that of the blank control wells without cells before further calculations. The efficacy data are expressed as a percentage normalized to the vehicle controls as calculated in the following formulae. Inhibitory potency (% of vehicle control)=[(OD490compound−OD490blank)/(OD490vehicle−OD490blank)]×100%. The concentration (IC50) of a test compound that inhibits 50% of the cellular activity is determined.

[2] = test system: colorectal DLD1 cancer cells; experiment: In vitro cytotoxicity MTS assay, colorectal DLD1; assay type: cell-based, human; settings: 72 hours
Method: as §1

[3] = test system: adriamycin-resistant MES-SA/Dx5 subline; experiment: In vitro cytotoxicity MTS assay, adriamycin-resistant MES-SA/Dx5; assay type: cell-based, human; settings: 72 hours
Method: as §1

[4] = test system: rat aorta endothelial cells; experiment: Rat aorta tube formation assay (angiogenesis inhibition); assay type: cell-based, Spraque-Dawley rats; parameters: key: Noninhibitors are indicated by the symbol (−), meaning that the extent of endothelial cell growth is essentially at the same level as that of the control; The most potent inhibitors receive a score of (+++++), indicating essentially no measurable endothelial cell growth; settings: final conc. 0.3 μg/ml, 5 days
Method: The procedures are modified from previous reports (Burbridge and West 2001; Bauer et al. 2000; Nicosai and Ottinetti 1990a) and described as follows. Male Spraque-Dawley rats of 6-8 weeks old are purchased from the National Laboratory Animal Breeding and Research Center (Taipei, Taiwan). The animals are anesthetized with urethane (2 g/kg, intraperitoneal) and the thoracic aortas are quickly harvested in a laminar flow hood. The aortas are rinsed with ice-cold normal saline with 10 μg/ml gentamicin and the attached fibroadipose tissues are removed using micro-dissection scissors. The aortas are cross-sectioned into rings of 1 mm in thickness. A mixture of Matrigel®, purchased from BD Biosciences, solution and the EBM-II medium, purchased from BioWhittaker Inc., (1:1) with 2% FBS, 0.25 mg/ml, amphotericin B and 10 μg/ml gentamicin is prepared and added at 100 μl to each well of a 48-well plate. The mixture is allowed to gel at 37° C. Aorta rings are then placed onto the gelled matrix and embedded in an additional 150 μl per well of the mixture solution and allowed to gel at 37° C. The aorta rings are then covered with 125 μl of the EGM-II medium and incubated overnight in humidified incubator with 5% CO2/95% air at 37° C. After removal of the EGM-II from the established aorta cultures, the compound-containing media are applied at 300 μl per well to the cultures and then incubated in 5% CO2/95% air at 37° C. for 5 days. The cultures are then subject to the 3-[4,5-dimethylthiazol-2-yl]-2,5 diphenyl-2H-tetrazolium bromide (MTT) or 3-(4,5-dimethylthiazol-2-yl)-5-(3-carbomethoxyphenyl)-2H-tetrazolium (MTS) assay and OD490 nm values measured. The testing compounds are dissolved in dimethyl sulfoxide (DMSO) and prepared in EBM-II media with at a final concentration of DMSO less than 0.1%.
The capillary-like, tube structure of the outgrown rat aorta endothelial cells is easily visualized by MTT staining. The medium on top of the matrix is removed from the established aorta ring cultures. MTT solution of 5 mg/ml in saline is added to the cultures at 100 μl/well and the cultures are incubated in a CO2 incubator at 37° C. for 24 hr. The stained cultures are then examined under a microscope DMIRB from Leica and photos taken with a digital camera.
Inhibition activity is also assessed in the following manner. The reductive reaction of MTS initiated by the viable cellular mitochondrial activity is used as a basis for the measurement of cell viability (Cory et al. 1991; Gieni et al. 1995). To the rat aorta ring cultures 300 μl of a solution containing 100 μg MTS and 1 μg, phenazine methosulfate is added per well and incubated in 5% CO2/95% air at 37° C. for 24 hr. During the incubation, MTS is converted to formazan product. At the end of incubation, the solution overlaying the gel is well-mixed and 100 μl aliquots are transferred into a 96-well plate for measurement of OD490 nm with a spectrophotometer VICTOR™-II from Wallac Oy.
The compounds listed in Table 3 are screened for angiogenesis inhibition. The control compound, ASTA, is D-24851, N-[pyridin-4-yl]-[1-(4-chlorobenzyl)-indol-3-yl]-glyoxylic acid amide. Noninhibitors are indicated by the symbol (−), meaning that the extent of endothelial cell growth is essentially at the same level as that of the control.

[5] = test system: hepatocellular HA-22T cancer cells; experiment: In vitro cytotoxicity MTS assay, hepatocellular HA-22T; assay type: cell-based, human; settings: 72 hours
Method: as §1

[6] = test system: prostate PC3 cancer cells; experiment: In vitro cytotoxicity MTS assay, prostate PC3; assay type: cell-based, human; settings: 72 hours
Method: as §1

[7] = test system: hepatocellular HEP G2 cancer cells; experiment: In vitro cytotoxicity MTS assay, hepatocellular HEP G2; assay type: cell-based, human; settings: 72 hours
Method: as §1

[8] = test system: uterus MES-SA cancer cells; experiment: In vitro cytotoxicity MTS assay, uterus MES-SA; assay type: cell-based, human; settings: 72 hours
Method: as §1

[9] = test system: lung A549 cancer cells; experiment: In vitro cytotoxicity MTS assay, lung A549; assay type: cell-based, human; settings: 72 hours
Method: as §1

[10] = test system: breast MCF7 cancer cells; experiment: In vitro cytotoxicity MTS assay, breast MCF7; assay type: cell-based, human; settings: 72 hours
Method: as §1

[11] = test system: adriamycin-resistant MCF7/ADR subline; experiment: In vitro cytotoxicity MTS assay, adriamycin-resistant MCF7/ADR; assay type: cell-based, human; settings: 72 hours
Method: as §1

[12] = test system: gastric NUGC3 cancer cells; experiment: In vitro cytotoxicity MTS assay, gastric NUGC3; assay type: cell-based, human; settings: 72 hours
Method: as §1

[13] = test system: gastric HR cancer cells; experiment: In vitro cytotoxicity MTS assay, gastric HR; assay type: cell-based, human; settings: 72 hours
Method: as §1

Row | Structure (SMILES) | IC50 [1] | IC50 [2] | IC50 [3] | Inhibition Score [4] | IC50 [5] | IC50 [6] | IC50 [7] | IC50 [8] | IC50 [9] | IC50 [10] | IC50 [11] | IC50 [12] | IC50 [13]
1 | CCc1cc(Cn2cc(C(=O)C(=O)Nc3cc(C)ns3)c3ccccc32)on1 [Compound 63] | 35 nM | 705 nM | 330 nM | +++++ | 559 nM | 636 nM | 2470 nM | 312 nM | 1000 nM | 747 nM | 5070 nM | 118 nM | 78 nM
2 | Cc1cc(NC(=O)C(=O)c2cn(Cc3ccno3)c3ccccc23)sn1 [Compound 54] | 17 nM | 397 nM | 333 nM | +++++ | 382 nM | 725 nM | > 10000 nM | 268 nM | 1670 nM | 5020 nM | 5410 nM | 27 nM | 64 nM
3 | Cc1cc(NC(=O)C(=O)c2cn(Cc3ccsc3)c3ccccc23)sn1 [Compound 45] | 48 nM | 593 nM | 406 nM | +++++ | 2400 nM | 824 nM | 1690 nM | 306 nM | 611 nM | 611 nM | 2350 nM | 465 nM | 316 nM
4 | N#Cc1ccc(Cn2cc(C(=O)C(=O)Nc3ccc4ncccc4c3)c3ccccc32)cc1 [Compound 3] | 174 nM | 665 nM | 6090 nM | +++++ | 510 nM | 9630 nM | 383 nM | 4710 nM | 6400 nM | 640 nM | 665 nM | 279 nM | 266 nM
5 | Cc1cc(NC(=O)C(=O)c2cn(Cc3cc(C(C)C)no3)c3ccccc23)sn1 [Compound 65] | 50 nM | 609 nM |  | +++++ | 302 nM |  | 720 nM |  |  | 700 nM | 710 nM | 242 nM | 324 nM
6 | Cc1cc(NC(=O)C(=O)c2cn(Cc3ccco3)c3ccccc23)sn1 [Compound 40] | 56 nM | 981 nM | 263 nM | +++++ | 1260 nM | 398 nM | 7720 nM | 235 nM | 746 nM | 1160 nM | 1170 nM | 395 nM | 295 nM
